In the NIST ThermoML archive (doi:10.1016/j.fluid.2014.08.002) one finds mass density data, which are given here for four compounds.

± gives the expanded uncertainty stated by the source.

For this data set the following is noted: 298.15 K; 101.3 kPa; Liquid; Vibrating tube method.
Take `CCCCCCC` [heptane]: the mass density is 683.8 ± 0.3 kg/m3.

`Cc1ccccc1` [toluene]: the mass density came to 866.9 ± 0.2 kg/m3.

With `CCO` [ethanol], the mass density is given as 789.5 ± 0.2 kg/m3.

As for `CC1(C)OCCO1` [2,2-dimethyl-1,3-dioxolane], the mass density amounted to 944.2 ± 0.3 kg/m3.

One may read the mass density as mass per unit of volume.
